“And” between values parts separate entries of the source, which are not always exact repeats. Identical values can stand only once.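 Values below derive from 48-hour exposures of cells grown in 96-well plates, with endpoints linearly interpolated between the two concentrations bracketing the appropriate inhibition level. GI50 marks 50% less growth. TGI denotes the concentration required for complete inhibition of growth.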
How the values were obtained:
Test in all cases: NCI tumour cell line growth inhibition, 48 h
[1] = system: DLD-1 colon
[2] = system: HOP-18 NSCLC
[3] = system: SNB-78 CNS
[4] = system: DMS 114 small cell lung
[5] = system: P388/ADR leukemia
[6] = system: DMS 273 small cell lung
[7] = system: M19-MEL melanoma
[8] = system: KM20L2 colon
[9] = system: HS 578T breast
[10] = system: SR leukemia
[11] = system: TK-10 renal
[12] = system: XF 498 CNS

| Structure (SMILES) | TGI [1] [µM] | TGI [2] [µM] | TGI [4] [µM] | TGI [6] [µM] | TGI [8] [µM] | TGI [9] [µM] | TGI [10] [µM] | TGI [11] [µM] | further results |
| --- | --- | --- | --- | --- | --- | --- | --- | --- | --- |
| CC1=C2C3OC(=O)C(C)C3CCC2(C)C=CC1=Nc1ccccc1 (configuration not stated) | > 100 | > 100 | > 100 | > 100 | > 100 | – | – | – | TGI [3]: > 100 µM; TGI [5]: > 100 µM; TGI [7]: > 100 µM |
| CCOC(=O)C(OP(=O)(OCC)OCC)C(F)(F)F (configuration not stated) | – | – | – | – | – | > 100 | > 100 | > 100 | – |
| c1ccc([P+](c2ccccc2)(c2ccccc2)C2c3ccccc3-c3ccccc32)cc1 | – | – | – | – | – | 5.75 | – | 9.21 | – |
| CCOC(=O)C(CCc1ncnc2c1ncn2Cc1ccccc1)(CCc1ncnc2c1ncn2Cc1ccccc1)C(=O)OCC | – | – | – | – | – | > 100 | > 100 | > 100 | – |
| CC(=O)Nc1ccc(Sc2nnc(NC(C)=O)s2)cc1 | – | – | – | – | – | > 100 | > 100 | > 100 | – |
| O=c1ccnc2ccc3n[nH][nH]c3c12 | > 100 | > 100 | > 100 | > 100 | > 100 | – | – | > 100 | TGI [3]: > 100 µM; TGI [12]: > 100 µM; TGI [7]: > 100 µM |
| CCCCCCCCOC(=O)c1cc([N+](=O)[O-])c(Sc2ncnc3nc[nH]c23)c([N+](=O)[O-])c1 | 2.94 | 11.1 | 1.81 | 1.57 | 9.22 | 70.9 | – | 8.58 | TGI [3]: 10.5 µM; TGI [5]: 0.458 µM; TGI [12]: 2.24 µM; TGI [7]: 12.9 µM |
| COc1cc2c[n+](C)c3c4cc(OC)c(OC)cc4ccc3c2cc1OC | – | – | – | – | – | > 100 | – | > 100 | GI50 [9]: > 100 µM and 10.3 µM |
| C=CCCCCCCCCC(=O)O | 163 | 226 | 389 | 289 | 268 | – | – | – | TGI [3]: 607 µM; TGI [5]: 264 µM; TGI [12]: 30.9 µM; TGI [7]: 449 µM |
| CN(C(=O)c1ccc(OCCCC(=O)O)c(Cl)c1Cl)C1CCCC1 | > 100 | > 100 | > 100 | > 100 | > 100 | – | – | – | TGI [3]: > 100 µM; TGI [5]: > 100 µM; TGI [12]: 85.2 µM; TGI [7]: > 100 µM |
| Cn1c(=O)c(Cl)c(N=[N+]=[N-])c2ccccc21 | – | – | – | – | – | > 100 | > 100 | > 100 | – |
| COC1=CC(=O)C2=C(C[C@@]3(C)C(=C2)C(CO)=CC[C@H]3O)C1=O | – | – | – | – | – | > 100 | – | > 100 | – |
| CC(=O)OCC1OC(n2nc(Cc3ccccc3)c(=S)[nH]c2=S)C(OC(C)=O)C(OC(C)=O)C1OC(C)=O (configuration not stated) | – | – | – | – | – | 45.4 | > 100 | > 100 | – |
| CNC(=O)NS(=O)(=O)c1ccc(C)cc1 | – | – | – | – | – | > 100 | – | > 100 | – |
| O=c1oc2ccc([N+](=O)[O-])cc2cc1Br | – | – | – | – | – | > 100 | > 100 | > 100 | – |
| O=[N+]([O-])c1cccc(N=Nc2c(O)ccc3ccccc23)c1 | – | – | – | – | – | > 100 | – | > 100 | – |
| O=c1c([OH2+])c(-c2ccc(O)cc2[O-])oc2cc(O)cc([O-])c12.O=c1c([OH2+])c(-c2ccc(O)cc2[O-])oc2cc(O)cc([O-])c12.[Ti+4] | > 100 | > 100 | > 100 | > 100 | > 100 | – | – | > 100 | GI50 [1]: > 100 µM; GI50 [2]: > 100 µM; GI50 [3]: > 100 µM; TGI [3]: > 100 µM; GI50 [4]: > 100 µM; GI50 [6]: > 100 µM; GI50 [7]: > 100 µM; TGI [7]: > 100 µM; GI50 [8]: > 100 µM |
| CCN1CCC(O)(c2ccc(O)cc2)C(C(=O)c2ccc(O)cc2)C1 (configuration not stated) | – | – | – | – | – | > 100 | 43.4 | 31.5 | – |
| O=C1O/C(=C\c2ccc(O)cc2)C(c2ccc(O)c(Cl)c2)=C1Cl | – | – | – | – | – | > 100 | > 100 | > 100 | – |
| CCOC(=O)C(=O)NC12CC3CC(CC(C3)C1)C2 | > 100 | > 100 | > 100 | > 100 | > 100 | – | – | > 100 | TGI [12]: > 100 µM |
| O=[N+]([O-])C(=C/c1cccs1)/C(=C\c1cccs1)[N+](=O)[O-] | – | – | – | – | – | 50.7 | 0.987 | 7.76 | – |
| CC[C@H](C)[C@H](NC(=O)[C@@]1(O)[C@H](O)[C@]2(CC)C=CCN3CC[C@@]4(c5cc(Br)c(OC)cc5N(C)[C@@H]14)[C@@H]32)C(=O)OC | – | – | – | – | – | 77.1 | > 100 | > 100 | – |
| COC(=O)C1=NN2c3ccccc3CN([C@@H](C)c3ccccc3)C(=O)[C@@H]2[C@H]1c1ccccc1 | – | – | – | – | – | > 100 | > 100 | > 100 | – |

— PubChem BioAssay (NCI)
